Assay results published in ChEMBL document CHEMBL1152558, “A critical electrostatic interaction mediates inhibitor recognition by human asparagine synthetase” (Bioorg Med Chem, 2009).
Activity calls are given as the source filed them. The calls are words filed in the database; no cut-off is given here.

Key:
[1] = biological target: T1, Asparagine synthetase [glutamine-hydrolyzing] (Homo sapiens, UniProt P08243); test: Inhibition of human recombinant ASNS expressed in Sf9 insect cells
T1 sequence (P08243 whole entry): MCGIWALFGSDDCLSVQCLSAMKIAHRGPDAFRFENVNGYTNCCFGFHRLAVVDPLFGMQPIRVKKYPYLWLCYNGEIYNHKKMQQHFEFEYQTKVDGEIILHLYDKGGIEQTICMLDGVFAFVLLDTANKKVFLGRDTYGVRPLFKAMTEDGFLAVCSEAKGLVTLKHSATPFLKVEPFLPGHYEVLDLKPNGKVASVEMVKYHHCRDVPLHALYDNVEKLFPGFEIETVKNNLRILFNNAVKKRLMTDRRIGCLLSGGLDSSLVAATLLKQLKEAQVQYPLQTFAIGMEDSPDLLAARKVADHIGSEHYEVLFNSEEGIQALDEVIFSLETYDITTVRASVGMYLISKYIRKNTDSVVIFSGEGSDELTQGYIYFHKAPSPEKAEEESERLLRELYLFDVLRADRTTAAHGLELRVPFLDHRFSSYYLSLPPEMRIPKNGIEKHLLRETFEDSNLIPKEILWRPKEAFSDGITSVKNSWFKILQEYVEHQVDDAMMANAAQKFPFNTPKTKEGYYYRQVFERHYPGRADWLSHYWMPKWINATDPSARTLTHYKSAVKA

[2] = biological target: T1, Asparagine synthetase [glutamine-hydrolyzing]; test: Inhibition of human recombinant ASNS expressed in Sf9 insect cells assessed as overall inhibition constant
[3] = biological target: T2, Asparagine synthetase [glutamine-hydrolyzing] (Homo sapiens) (UniProt P08243); test: Inhibition of human recombinant ASNS expressed in Sf9 insect cells assessed as inorganic phosphate production in ammonia-dependent asparagine synthesis using continuous assay
T2 sequence (whole entry): T1 sequence (P08243 whole entry)

[4] = biological target: T2, Asparagine synthetase [glutamine-hydrolyzing] (Homo sapiens); test: Inhibition of human recombinant ASNS expressed in Sf9 insect cells assessed as inorganic phosphate production in glutamine-dependent asparagine synthesis using continuous assay

Ki [1]	Ki [2]	Activity [3]	Activity [4]	SMILES
20 µM	10 µM			C[S+]([O-])(C[C@H](N)C(=O)O)=NP(=O)(O)OC[C@H]1O[C@@H](n2cnc3c(N)ncnc32)[C@H](O)[C@@H]1O (some centres undefined)
		inactive	inactive	C[S+]([O-])(CC(N)C(=O)O)=NS(=O)(=O)NC[C@H]1O[C@@H](n2cnc3c(N)ncnc32)[C@H](O)[C@@H]1O (mixture of isomers)
